These results are taken from patent US11524966B1 (Valo Early Discovery, Inc., priority 2017, dated 2022).

This experiment has as its target T1, USP28 (His-tagged USP28-FL-mammalian) (Homo sapiens, UniProt Q96RU2).
T1 construct: Expression of USP28 (1-1077)-TEV-6*His (pTT5 vector); made in house; host or cells: Expi293f cells (pTT5 vector)
T1 sequence (Q96RU2 1-1077): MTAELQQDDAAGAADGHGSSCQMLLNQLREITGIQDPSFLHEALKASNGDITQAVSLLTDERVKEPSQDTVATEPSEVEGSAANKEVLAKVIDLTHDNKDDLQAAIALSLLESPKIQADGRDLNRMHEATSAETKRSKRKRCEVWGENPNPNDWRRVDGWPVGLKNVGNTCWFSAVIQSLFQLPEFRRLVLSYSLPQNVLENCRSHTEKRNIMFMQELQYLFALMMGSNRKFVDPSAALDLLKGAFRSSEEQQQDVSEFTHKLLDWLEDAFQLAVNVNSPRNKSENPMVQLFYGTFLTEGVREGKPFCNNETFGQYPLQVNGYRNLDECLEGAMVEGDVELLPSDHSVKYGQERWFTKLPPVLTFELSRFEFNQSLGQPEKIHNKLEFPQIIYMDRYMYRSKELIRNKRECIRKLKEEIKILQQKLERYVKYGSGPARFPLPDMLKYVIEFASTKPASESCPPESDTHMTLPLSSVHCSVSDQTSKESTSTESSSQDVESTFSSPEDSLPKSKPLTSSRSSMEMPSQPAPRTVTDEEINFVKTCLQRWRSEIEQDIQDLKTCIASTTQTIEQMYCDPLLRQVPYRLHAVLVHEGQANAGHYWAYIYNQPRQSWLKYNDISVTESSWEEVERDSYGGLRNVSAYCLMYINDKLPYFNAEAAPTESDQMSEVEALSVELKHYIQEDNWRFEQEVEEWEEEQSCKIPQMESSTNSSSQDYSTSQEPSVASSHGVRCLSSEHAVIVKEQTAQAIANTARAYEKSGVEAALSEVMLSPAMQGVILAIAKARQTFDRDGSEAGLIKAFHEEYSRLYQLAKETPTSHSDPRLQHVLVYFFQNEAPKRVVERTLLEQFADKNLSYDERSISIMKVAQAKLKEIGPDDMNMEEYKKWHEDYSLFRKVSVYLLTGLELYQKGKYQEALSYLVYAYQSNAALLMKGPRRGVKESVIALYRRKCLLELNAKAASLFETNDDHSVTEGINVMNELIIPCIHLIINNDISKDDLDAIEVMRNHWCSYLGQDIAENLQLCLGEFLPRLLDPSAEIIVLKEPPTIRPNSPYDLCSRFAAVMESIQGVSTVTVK
As to the kind of experiment: Ubiquitin-Rhodamine 110 Assay for USP28 Activity, Example A-1(a). The experiment is classed as biochemical. Conditions: Ubiquitin-Rhodamine 110 assay, Example A-1(a); read-out: USP28 A-1(a) IC50 range. The method in brief: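 Full-length His-tagged human USP28 (1-1077, Expi293f-expressed), […], with 25 nM Ub-Rh110 (<<Km) in pH 8.0 Tris buffer with BME, BGG, Triton X-100. 10-point dilutions (25 μM-1.3 nM), 45 min at room temperature, citric acid stop, fluorescence 485/535 nm; IC50 by 4-parameter fit.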

By IC50 is commonly meant the concentration that inhibits the measured activity by half. For the compound `O=C(N[C@H]1COc2cc(N3CCNCC3)ccc2C1)c1ccc(NCc2ccc3c(c2)CCO3)nc1` [Example 472, (R)-6-(((2,3-dihydrobenzofuran-5-yl)methyl)amino)-N-(7-(piperazin-1-yl)chroman-3-yl)nicotinamide], the IC50 lay within 200 to 2000 nM.

For `CC(=O)Nc1cccc(CNc2ccc(C(=O)N[C@H]3COc4cc(N5CCNCC5)ccc4C3)cn2)c1` [Example 473, (R)-6-((3-acetamidobenzyl)amino)-N-(7-(piperazin-1-yl)chroman-3-yl)nicotinamide], the IC50 is more than 2000 nM.

Regarding `CCc1cccc2c(C(=O)N[C@H]3COc4cc(N5CCNCC5)ccc4C3)cnn12` [Example 474, 7-ethyl-N-[(3R)-7-(piperazin-1-yl)-3,4-dihydro-2H-1-benzopyran-3-yl]pyrazolo[1,5-a]pyridine-3-carboxamide], the IC50 is 1 to 50 nM.

As for `O=C(N[C@H]1COc2cc(N3CCNCC3)ccc2C1)c1cnn2c(CO)cccc12` [Example 475, 7-(hydroxymethyl)-N-[(3R)-7-(piperazin-1-yl)-3,4-dihydro-2H-1-benzopyran-3-yl]pyrazolo[1,5-a]pyridine-3-carboxamide], the IC50 is 200 to 2000 nM.
